Entries after “also recorded” stand apart in the source; their conditions may differ.
Legend:
mouse Casp11 = biological target: T1, mouse Casp11 (Mus musculus, UniProt P70343); test: Selectivity against mouse Casp11; assay type: biochemical; conditions: recombinant caspases
T1 sequence (P70343 81-266 limits assumed): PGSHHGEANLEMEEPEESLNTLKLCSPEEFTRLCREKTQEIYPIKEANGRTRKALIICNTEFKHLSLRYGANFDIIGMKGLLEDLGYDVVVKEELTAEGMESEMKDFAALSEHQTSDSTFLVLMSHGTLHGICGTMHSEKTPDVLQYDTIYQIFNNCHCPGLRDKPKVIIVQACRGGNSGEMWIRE
T1 sequence (P70343 286-373 limits assumed): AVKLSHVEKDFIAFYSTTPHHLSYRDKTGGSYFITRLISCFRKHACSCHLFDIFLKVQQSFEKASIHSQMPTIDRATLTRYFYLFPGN
Method: FIG. 14: Selectivity and blood brain permeability of VX-765 and VRT-043198. (a-b) IC50 of VX-765 (a) and VRT-043198 (b) against human Casp1-10. (c-d) IC50 of VX-765 (c) and VRT-043198 (d) against mouse Casp1 and Casp11. (e) Blood brain barrier permeability and presence of VX-765 and VRT-043198 in 3 wild type and 4 J20 mice brain cortex and hippocampus and in plasma. Ratios of brain levels to plasma levels are calculated.

J20 mice [1] = test: ELISA of II-1β and other cytokines, treated symptomatic J20 mice; assay type: in vivo, mouse
From the text: FIG. 10: VX-765 reverses neuroinflammation in J20 mice. (a) Iba-1 positive microglia immunohistographs in the stratum lacunosum molecular area of the hippocampus and S1 of cortex (Scale bar=50 μm). (b) Stereological quantification of Iba-1^+ microglia for WT+Vehicle (n=6), J20+Vehicle (n=5), and J20+VX-765 (n=4) in the hippocampus from the pyramidal cell layer to the stratum lacunosum molecular layer (F(2,11)=58, p<0.0001) and cortex (F(2,11)=39.95, p<0.0001, ANOVA, Dunnett's post-hoc compared to J20+Vehicle, ***p<0.001). (c) Average percentage distribution of morphological microglial subtypes 1 (black (lowermost) bar), 2 (light grey bar), 3 (dark grey bar) and 4 (black (uppermost) bar). (d) II1-β pg/mg levels measured by ELISA in pre-treated J20 at 5 months of age and in treated WT and J20 8 months of age. (e) Astroglial GFAP^+ immunohistographs.
FIG. 18: ELISA measures of cytokines in vehicle-treated WT and J20 mice and VX-765-treated J20 mice. (a) Plasma levels of II-1β in mice after T3. (b) Cytokine levels in vehicle-treated WT and J20 and in VX-765-treated J20 brain hippocampi and cortex. (c) GFAP immunostaining density in vehicle-treated WT (n=6) and J20 (n=5) and in VX-765-treated J20 (n=4) brain hippocampi (F(2,12)=5.234, p=0.0232, ANOVA, Dunnett's post-hoc compared to WT+Vehicle, *p<0.05) and cortex. (d) Western blots and quantitative analyses of GFAP in vehicle-treated WT and J20 and in VX-765-treated J20 brain hippocampi and cortex.
To assess AD-like pathology, immunohistochemical analyses were performed to detect amyloid deposition (anti-AβF25276)^5,6, microglial (Iba1) activation^7, astrogliosis (GFAP), synaptophysin protein levels on coronal brain sections. Multiplex MSD ELISA was used to assess Aβ levels and 38,40, and 42 subtypes, and II-1β brain levels. RT-PCR was used to assess levels of human APP^Sw/Ind.

J20 mice [2] = test: Iba1 and GFAP immunostaining, preventive treatment of J20 mice; assay type: in vivo, mouse
From the text: FIG. 4: Immunostainings of mice hippocampus at 4 months of age (PREVENTION GROUP) with microglial Iba-1, astrocyte GFAP, and synaptic synaptophysin antibodies.
FIG. 25: Iba1 immunopositive staining in the mice brain hippocampus at different times of washout (a,b). All sections were immunostained together and automatically with Dako immunostainer and the number of Iba1-immunopositive […] counted stereologically. Statistics done as described in FIG. 10b. (c) Analyses of subtypes of Iba1-immunopositive microglia as described in FIG. 10c.
FIG. 26: GFAP immunopositive staining in the hippocampus of mice brains at different times of washout (a,b). All sections were immunostained together and automatically with Dako immunostainer. Quantitation of GFAP-immunopositive astrocytes was done as described above.
We directly tested whether pre-symptomatic inhibition of inflammation in a mouse genetic model of Alzheimer disease can stem the progression of memory and behavioral deficits, and Alzheimer disease-like pathology. The J20 amyloid precursor protein Swedish/Indiana mutant mouse was treated at 2 months of age for a one month period with 50 mg/Kg Caspase-1 inhibitor VX-765 (FIG. 22a).

[3] = test system: APP^WT-transfected human primary neurons; test: Neuritic beading in APPWT-transfected human primary neurons; assay type: cell-based
Method: (§1) FIG. 13: VX-765 protects CNS primary human neurons (HPN) against APP- or serum deprivation-mediated neuritic beading. (a) MTT assay with increasing dose of VX-765. (b) Fluorescent micrographs showing homogeneous distribution of EGFP in normal neurons and neuritic beading in APP-transfected neurons. (c) Percentage beading in APP-transfected or serum-deprived neurons treated 1 h before and continuously with stressor (Pre-treatment) or 48 h after stressor (post-beading treatment) with 25 or 50 μM VX-765 or with 5 μM Z-YVAD-fmk Casp1 peptide inhibitor. […] (d-e) HPN secreted or cellular Aβ42/total Aβ38+40+42 (d) (F(3,4)=12.73, p=0.0163, ANOVA, Dunnett's post-hoc compared to Serum+DMSO, *p<0.05), and (e) levels of secreted II-1β, IFN-γ, TNF-α, and II-6 from untreated (+S), serum deprived (−S), or serum-deprived human neurons treated with 25 or 50 μM VX-765.
(§2) EGFP-labeled human primary neurons were either APP^WT transfected or serum deprived. Two treatment strategies were employed to determine VX-765's effects on neuronal degeneration: our Pre-Treatment strategy looked at whether VX-765 could block neuronal degeneration when administered 1 hr prior to APP^WT transfection or serum deprivation, while our Reversal Treatment strategy looked at whether VX-765 could reverse degenerative effects when administered 48 hrs after APP^WT transfection or serum deprivation. Neurons displaying beaded morphology were counted with live imaging and measured as a percentage of the total number of eGFP+ neurons from 24-72 hrs after treatment. The irreversible caspase-1 inhibitor YVAD-fmk was used as positive control in our experiments. Results were obtained from averaging counts for at least 100 eGFP+ neurons per experiment in three independent neuron preparations.

[4] = test system: serum deprived human primary neurons; test: Neuritic beading in serum-deprived human primary neurons; assay type: cell-based
Method: as §1, §2

`CCO[C@@H]1OC(=O)C[C@@H]1NC(=O)[C@@H]1CCCN1C(=O)[C@@H](NC(=O)c1ccc(N)c(Cl)c1)C(C)(C)C` [VX-765, (S)-1-((S)-2-{[1-(4-amino-3-chloro-phenyl)-methanoyl]-amino}-3,3-dimethyl-butanoyl)-pyrrolidine-2-carboxylic acid ((2R,3S)-2-ethoxy-5-oxo-tetrahydro-furan-3-yl)-amide] was tested, and the “inhibition of mouse Casp1 compared to mouse Casp11” value (mouse Casp11) was “strongly inhibited compared to inflammatory mouse Casp11”, the “TNFα protein level in hippocampi” value (J20 mice [1]) was “returned to normal” and the “II-1β level in hippocampus” value (J20 mice [1]; 50 mg/kg, after Treatment 3) was “reduced after VX-765 treatment”. The “II-1β level in plasma” value (J20 mice [1]; after Treatment 3) was “No changes were seen”, the “other inflammatory protein levels (TNF-α, KC-GRO, IFN-γ)” value (J20 mice [1]; brain hippocampi and cortex) was “No significant difference” and the GFAP astrogliosis (J20 mice [2]; 4 month old J20 brains) was “possibly GFAP astrogliosis”. The “microglial Iba1 positive inflammation” value (J20 mice [2]; 4 month old J20 brains) was “reduced microglial Iba1 positive inflammation”, the “astrocytic GFAP immunostaining” value (J20 mice [2]; different times of washout) was “does not reach statistical significance” and the “Iba1 positive microglial inflammation” value (J20 mice [2]; hippocampus and cortex, different times of washout) was “strongly decreased microglial inflammation”. For the same compound, the subtype of microglia (J20 mice [2]; up to the 12 week washout, hippocampus and cortex) was “restores resting microglia numbers”, the neuritic beading ([3]; pre-treatment 1 h before and continued, VX-765 25 and 50 μM, Z-YVAD-fmk 5 μM, 48 and 72 h) was “prevented neuritic beading” and the “reduction in neuritic beading” value ([3]; pre-treatment 1 hr prior, 48 hrs and 72 hrs post transfection, vs DMSO) was 40%. The neuritic beading ([4]; pre-treatment 1 h before serum deprivation) was “particularly effective in reducing neuritic beading at 72 hrs; also recorded: protected against, albeit less strongly” and the neuritic beading ([4]; reversal treatment 48 hrs after serum deprivation) was “neither YVAD nor VX-765 were able to reverse neuritic beading”.

— US11160788B2, “Caspase-1 inhibition and uses thereof for prevention and treatment of neurological conditions” (priority 2016, dated 2021)
